What was measured:
[1] = tested on: FTC133 cells; assay: MTT cell viability assay, FTC133; format: cell-based, Human; conditions: Homo sapiens, FTC-133, 72-hours of exposure, 1% FBS, mean±standard deviation (n=3), read-out: IC50 for reducing viability of FTC133 cells versus DMSO control
Description: (§1) Human thyroid cancer BCPAP, TPC1, and FTC133 cell lines were the generous gifts of Drs. Rebecca Schweppe and Bryan Haugen (University of Colorado Denver) (Schweppe et al., The Journal of clinical endocrinology and metabolism 83:4331-4341 (2008)) with permission from the following originating laboratories: BCPAP—Dr. Fabien, Centre Hospitalier Lyon-Sud, France (Fabien et al., Cancer 73:2206-2212 (1994)); TPC1—Dr. Sato, Kanazawa University, Japan (Tanaka et al., Virology 161:62-411 (1987)); and FTC133—Dr. Goretzki, University of Leipzig, Germany (Goretzki et al., Recent Results Cancer Res 118:48-63 (1990)). The obtained cell lines were confirmed for identity by DNA fingerprinting. BCPAP was grown in RPMI 1640 medium (Life Technologies Co., Carlsbad, Calif.) while FTC133 and TPC1 were grown in DMEM (Life Technologies Co.), both supplemented with 10% fetal bovine serum (FBS) and NEAA unless as noted for experiments.
(§2) The effect of OSU-03012 and its derivatives on cell viability was assessed by using the 3-(4,5-dimethylthiazol-2-yl)-2,5-diphenyl-2H-tetrazolium bromide (MTT) assay. Three replicates were performed in each individual experiment, and experiments were repeated at least three separate times. Cells were grown in 96-well plates for 24 hours and were exposed to various concentrations of drugs dissolved in DMSO (final concentration 0.1%) in RPMI 1640 or DMEM containing 1% FBS for 72 hours. 10 μL of 0.5 mg/ml MTT was added to each well and cells were incubated in CO2 at 37° C. for 2 hours. Supernatants were removed from the wells, the reduced MTT dye was solubilized in 100 μL of solution C (12 ml of 1N HCl in 300 mL of isopropanol), and absorbance at 570 nm was determined on a microplate reader.
(§3) We assessed the ability of the compounds to reduce cell viability in vitro by MTT assay after 72 hours of continuous exposure. Results are shown in Table 1 and are depicted as the IC50 vs. simultaneously performed DMSO control.
(§4) ^aThe reported IC50 values are concentrations at which BCPAP, FTC133 and TPC1 cell viability by MTT assays 50% of DMSO control after 72-hours of exposure. Data are presented as mean±standard deviation (n=3). PAK and PDK1 Selectivity In Vivo

[2] = tested on: PDK1 phosphorylation of Akt (Thr308); assay: Western blot, PDK1 phosphorylation of Akt (Thr308) in thyroid cancer cells; format: cell-based, Human; conditions: 7.5 μM, 6 h, BCPAP, FTC133 and TPC1 cells (FIG. 3)
Procedure: (§5) Protein isolation and Western blot were performed as previously described. Ringel et al., Cancer research 61:6105-6111 (2001). 25 μg of total cell lysates were loaded into 4-12% SDS-PAGE, electrophoresed, and transferred to nitrocellulose membranes for immunoblotting. Primary antibodies against Akt (#9272), phospho-Akt (Thr308) (#2965), p44/42 MAPK (Erk1/2) (#9107), phospho-p44/42 MAPK (Erk1/2) (Thr202/Tyr204) (#4377) and GAPDH (#2118) were obtained from Cell Signaling Technology (Danvers, Mass., USA). Antibody against Vimentin (V6630) and phospho-Ser55 Vimentin were from Sigma-Aldrich, Inc. (St. Louis, Mo.) and MBL Co. (Nagoya, Japan), respectively. Antibodies against total and phosphorylated S6 were from Cell Signaling Technology®.
(§6) The ability of the compounds with in vitro anti-PAK1 activity was assessed for activity […] in thyroid cancer cells. In addition, because the compounds are based on the structure of a PDK1 inhibitor, PDK1 inhibitory activity was also assessed. Inhibitory activity in cells was estimated using Western blot with primary antibodies directed against kinase-specific phosphorylation sites; serine 56 of vimentin for PAK and threonine 308 of Akt for PDK1. BCPAP, TPC1, and FTC133 thyroid cancer cells were utilized. BCPAP and TPC1 are derived from PTC and have BRAF V600E and RET/PTC1 rearrangements, respectively. FTC133 is derived from a follicular thyroid cancer with an inactivating mutation of PTEN. Similar to the kinase screening assay, cells were treated with the six compounds or OSU-03012 at 7.5 μM concentration or with DMSO vehicle alone. The results were not entirely consistent across the three cell lines presumably related to mutation status or other factors. OSU-03012 inhibited both PDK1 and PAK-mediated phosphorylation of targets as predicted.
(§7) The dose-dependency of compounds 4 and 15 was next assessed (FIG. 4). […] Due to the important role that ERK activation plays in thyroid cancer, and its signaling activation by thyroid oncogenes, the effects of the compounds on ERK phosphorylation was also assessed.

[3] = tested on: PAK phosphorylation of Vimentin (Ser56); assay: Western blot, PAK phosphorylation of Vimentin (Ser56) in thyroid cancer cells; format: cell-based, Human; conditions: 7.5 μM, 6 h, BCPAP, FTC133 and TPC1 cells (FIG. 3)
Procedure: as §5, §6, §7

[4] = target: T1, Recombinant active PAK 1 (Homo sapiens, UniProt Q13153); assay: In vitro PAK1 kinase assay (MBP substrate, 32P-ATP); format: biochemical
T1 construct: purchased Calbiochem
Procedure: Recombinant active PAK 1 (Calbiochem) was incubated with selected derivatives or 0.1% DMSO in the presence or absence of MBP (Sigma) in a 1× kinase buffer (Cell Signaling). The addition of [γ-32P]-ATP (2.5 μCi/reaction) (Perkin Elmer) started the reaction, which was incubated at 30° C. for 30 minutes. The reaction was terminated by the addition of EDTA. Results were obtained after visualization of ^32P-labeled MBP after separation on 12% polyacrylamide gels and autoradiography. For the Lineweaver-Burk plot analysis, the ratio of radioactive ATP to nonradioactive ATP was not altered. The PAK1 kinase activities are the means of three independent experiments quantified using P81 phosphocellulose paper by a scintillation counter after three washes with 0.75% phosphoric acid.
Screening of OSU-03012 Derivatives to Identify PAK1 Inhibitors. The 17 derivatives along with OSU-03012, each at 7.5 μM, were screened for their ability to inhibit PAK1 activity by in vitro PAK1 kinase assay. The dose was chosen (above the IC50 of OSU-03012) to allow OSU-03012 to serve as a robust positive control. The PAK1 kinase assay was performed using recombinant active PAK1 with myelin basic protein as substrate in the presence of 2.5 μM ATP and 7.5 μM of respective inhibitors.
To further investigate these six compounds, dose-response studies on PAK1 activity were performed by using PAK1 kinase assay. […] We next questioned whether compounds 4 or 15 inhibited PAK1 in an ATP competitive manner as their parent compound OSU-03012.

[5] = tested on: BCPAP cells; assay: MTT cell viability assay, BCPAP; format: cell-based, Human; conditions: Homo sapiens, BCPAP, 72-hours of exposure, 1% FBS, mean±standard deviation (n=3), read-out: IC50 for reducing viability of BCPAP cells versus DMSO control
Description: as §1, §2, §3, §4

[6] = tested on: TPC1 cells; assay: MTT cell viability assay, TPC1; format: cell-based, Human; conditions: Homo sapiens, TPC1, 72-hours of exposure, 1% FBS, mean±standard deviation (n=3), read-out: IC50 for reducing viability of TPC1 cells versus DMSO control
Description: as §1, §2, §3, §4

[7] = target: PAK (Homo sapiens, UniProt Q13153); conditions: Porchia et al., Mol Pharmacol 72:1124-1131 (2007); cited from earlier work
PAK, sequence (Q13153 whole entry): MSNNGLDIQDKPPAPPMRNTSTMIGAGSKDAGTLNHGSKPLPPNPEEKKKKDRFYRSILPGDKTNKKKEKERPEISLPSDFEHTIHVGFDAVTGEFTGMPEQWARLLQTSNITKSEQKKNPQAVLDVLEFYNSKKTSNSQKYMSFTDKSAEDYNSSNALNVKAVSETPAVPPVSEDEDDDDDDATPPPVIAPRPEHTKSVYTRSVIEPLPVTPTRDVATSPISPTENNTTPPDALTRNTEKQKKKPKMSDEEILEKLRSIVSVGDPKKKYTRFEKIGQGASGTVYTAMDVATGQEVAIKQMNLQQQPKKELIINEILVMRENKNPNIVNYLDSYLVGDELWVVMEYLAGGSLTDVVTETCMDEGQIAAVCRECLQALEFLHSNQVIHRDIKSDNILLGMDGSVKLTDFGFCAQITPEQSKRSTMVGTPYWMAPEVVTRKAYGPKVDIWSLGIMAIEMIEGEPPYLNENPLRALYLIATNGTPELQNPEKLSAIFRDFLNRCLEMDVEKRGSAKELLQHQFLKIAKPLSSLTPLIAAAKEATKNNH

T1 sequence (Q13153 whole entry): as above

SMILES	IC50 [1] [µM]	PDK1 phosphorylation of Akt (Thr308) (Western blot) [2]	PAK phosphorylation of vimentin (Western blot) [3]	Inhibition of PAK1 kinase activity in initial screen ([4]; 7.5 μM inhibitor, 2.5 μM ATP, myelin basic protein substrate (FIG. 2A))	Relative PAK1 inhibitory potency (comparison in words) ([4]; in vitro kinase assay, comparison between compounds / with OSU-03012)	IC50 [5] [µM]	IC50 [6] [µM]	IC50 ([4]; in vitro kinase assay, read-out: IC50 versus PAK, in vitro (bound implied by chosen test concentration)) [µM]	PAK inhibitory activity (previously reported) [7]
NCCC(=O)Nc1ccc(-n2nc(CO)cc2-c2ccc3ccc4ccccc4c3c2)cc1 [Compound 11, 3-Amino-N-(4-(3-(hydroxymethyl)-5-(phenanthren-3-yl)-1H-pyrazol-1-yl)phenyl)-propanamide]	3.94 ± 2.29	markedly inhibit PDK1 phosphorylation of Akt	did not significantly alter PAK phosphorylation of vimentin	inhibited PAK1 kinase activity	more potent	4.5 ± 1.04	4.98 ± 1.94	–	–
NCC(=O)Nc1ccc(-n2nc(C(F)(F)F)cc2-c2ccc3c(ccc4ccccc43)c2)cc1 [OSU-03012, reference compound]	2.93 ± 1.87	inhibited	inhibited	–	–	2.93 ± 1.05	2.8 ± 1.33	< 7.5	low micromolar concentrations
